Measurements published in ChEMBL document CHEMBL1201862, “PubChem BioAssay data set” (2004).
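Following 48 hours of exposure in 96-well plates, responses at five concentrations were used to interpolate endpoints linearly. The concentration for 50% growth inhibition is given as GI50.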 The source made the active and inactive calls. No stated cut-off is given here; in the data, active = GI50 up to about 1.1 µM and inactive = higher.

Experiments:
Assay in all cases: NCI anticancer screen, dose series, 48 h
786-0 = test system: 786-0
A498 = test system: A498
A549 = test system: A549
ACHN = test system: ACHN
CAKI-1 = test system: CAKI-1
CCRF-CEM = test system: CCRF-CEM
COLO 205 = test system: COLO 205
DU-145 = test system: DU-145
EKVX = test system: EKVX
HCC 2998 = test system: HCC 2998
HCT-116 = test system: HCT-116
HCT-15 = test system: HCT-15
HL-60 = test system: HL-60
HOP-62 = test system: HOP-62
HOP-92 = test system: HOP-92
HT-29 = test system: HT-29
IGROV-1 = test system: IGROV-1
K562 = test system: K562
KM12 = test system: KM12
LOX IMVI = test system: LOX IMVI
M14 = test system: M14
MCF7 = test system: MCF7
MDA-MB-231 = test system: MDA-MB-231
MDA-MB-435 = test system: MDA-MB-435
MDA-N = test system: MDA-N
MOLT-4 = test system: MOLT-4
Malme-3M = test system: Malme-3M
NCI-H226 = test system: NCI-H226
NCI-H23 = test system: NCI-H23
NCI-H460 = test system: NCI-H460
NCI/ADR-RES = test system: NCI/ADR-RES
OVCAR-3 = test system: OVCAR-3
OVCAR-4 = test system: OVCAR-4
OVCAR-5 = test system: OVCAR-5
OVCAR-8 = test system: OVCAR-8
PC-3 = test system: PC-3
RPMI-8226 = test system: RPMI-8226
RXF 393 = test system: RXF 393
SF-268 = test system: SF-268
SF-295 = test system: SF-295
SF-539 = test system: SF-539
SK-MEL-28 = test system: SK-MEL-28
SK-MEL-5 = test system: SK-MEL-5
SK-OV-3 = test system: SK-OV-3
SN12C = test system: SN12C
SNB-19 = test system: SNB-19
SR = test system: SR
SW-620 = test system: SW-620
T47D = test system: T47D
TK-10 = test system: TK-10
U-251 = test system: U-251
UACC-257 = test system: UACC-257
UACC-62 = test system: UACC-62
UO-31 = test system: UO-31
Hs-578T = test system: Hs-578T
SK-MEL-2 = test system: SK-MEL-2
SNB-75 = test system: SNB-75

CCCCOC(=O)NC(Nc1ccc(S(=O)(=O)Nc2ccc(OC)nn2)cc1)(C(F)(F)F)C(F)(F)F
GI50 (786-0): > 100 µM (inactive) | GI50 (A498): > 100 µM (inactive) | GI50 (A549): > 100 µM (inactive) | GI50 (ACHN): > 100 µM (inactive) | GI50 (CAKI-1): > 100 µM (inactive) | GI50 (CCRF-CEM): > 100 µM (inactive) | GI50 (COLO 205): > 100 µM (inactive) | GI50 (DU-145): > 100 µM (inactive) | GI50 (EKVX): > 100 µM (inactive) | GI50 (HCC 2998): > 100 µM (inactive) | GI50 (HCT-116): > 100 µM (inactive) | GI50 (HCT-15): > 100 µM | GI50 (HL-60): > 100 µM (inactive) | GI50 (HOP-62): > 100 µM (inactive) | GI50 (HOP-92): 78.2 µM (inactive) | GI50 (HT-29): > 100 µM (inactive) | GI50 (IGROV-1): > 100 µM (inactive) | GI50 (K562): > 100 µM (inactive) | GI50 (KM12): > 100 µM (inactive) | GI50 (LOX IMVI): > 100 µM (inactive) | GI50 (M14): > 100 µM (inactive) | GI50 (MCF7): > 100 µM (inactive) | GI50 (MDA-MB-231): > 100 µM (inactive) | GI50 (MDA-MB-435): > 100 µM (inactive) | GI50 (MDA-N): > 100 µM (inactive) | GI50 (MOLT-4): > 100 µM (inactive) | GI50 (Malme-3M): > 100 µM (inactive) | GI50 (NCI-H226): > 100 µM (inactive) | GI50 (NCI-H23): > 100 µM (inactive) | GI50 (NCI-H460): > 100 µM (inactive) | GI50 (NCI/ADR-RES): > 100 µM (inactive) | GI50 (OVCAR-3): > 100 µM (inactive) | GI50 (OVCAR-4): > 100 µM (inactive) | GI50 (OVCAR-5): > 100 µM (inactive) | GI50 (OVCAR-8): > 100 µM (inactive) | GI50 (PC-3): > 100 µM (inactive) | GI50 (RPMI-8226): > 100 µM (inactive) | GI50 (RXF 393): > 100 µM (inactive) | GI50 (SF-268): > 100 µM (inactive) | GI50 (SF-295): > 100 µM (inactive) | GI50 (SF-539): > 100 µM (inactive) | GI50 (SK-MEL-28): > 100 µM (inactive) | GI50 (SK-MEL-5): > 100 µM (inactive) | GI50 (SK-OV-3): > 100 µM (inactive) | GI50 (SN12C): > 100 µM (inactive) | GI50 (SNB-19): > 100 µM (inactive) | GI50 (SR): > 100 µM (inactive) | GI50 (SW-620): > 100 µM (inactive) | GI50 (T47D): > 100 µM (inactive) | GI50 (TK-10): > 100 µM (inactive) | GI50 (U-251): > 100 µM (inactive) | GI50 (UACC-257): > 100 µM (inactive) | GI50 (UACC-62): > 100 µM (inactive) | GI50 (UO-31): > 100 µM (inactive)

CO[C@@H]1/C=C\C=C(/C)C(=O)NC2=CC(=O)C(NCCN(C)C)=C(C[C@@H](C)C[C@@H](OC)[C@@H](O)[C@H](C)/C=C(\C)[C@H]1OC(N)=O)C2=O
GI50 (786-0): < 0.0204 µM (active) | GI50 (A549): < 0.0117 µM (active) | GI50 (CCRF-CEM): < 0.0144 µM (active) | GI50 (COLO 205): < 0.01 µM (active) | GI50 (HCC 2998): < 0.0118 µM (active) | GI50 (HCT-116): < 0.0132 µM (active) | GI50 (HCT-15): 0.345 µM | GI50 (IGROV-1): < 0.01 µM (active) | GI50 (KM12): < 0.01 µM (active) | GI50 (LOX IMVI): < 0.01 µM (active) | GI50 (M14): < 0.01 µM (active) | GI50 (MDA-MB-435): < 0.01 µM (active) | GI50 (MDA-N): < 0.01 µM (active) | GI50 (MOLT-4): 0.0166 µM (active) | GI50 (Malme-3M): < 0.01 µM (active) | GI50 (NCI-H460): < 0.01 µM (active) | GI50 (OVCAR-4): 0.841 µM (active) | GI50 (OVCAR-8): < 0.0191 µM (active) | GI50 (RPMI-8226): 0.121 µM (active) | GI50 (SK-OV-3): 0.0121 µM (active) | GI50 (SN12C): < 0.01 µM (active) | GI50 (SNB-19): < 0.0236 µM (active) | GI50 (U-251): < 0.01 µM (active) | GI50 (UACC-257): 0.0121 µM (active) | GI50 (UACC-62): < 0.01 µM (active) | GI50 (UO-31): 0.652 µM (active)

CC(=O)OCC(C)C1=C(OC(C)=O)C(=O)C2(C)C/C=C(/C)CC/C=C(\C)CCC(OC(C)=O)C(C)CCC12 (stereo unspecified)
GI50 (786-0): 13.7 µM (inactive) | GI50 (ACHN): 18.2 µM (inactive) | GI50 (CCRF-CEM): 22.4 µM (inactive) | GI50 (COLO 205): 20.8 µM (inactive) | GI50 (DU-145): 20.1 µM (inactive) | GI50 (HCC 2998): 15.8 µM (inactive) | GI50 (HCT-116): 16.9 µM (inactive) | GI50 (HCT-15): 16.9 µM | GI50 (HL-60): 10.9 µM (inactive) | GI50 (HOP-62): 14.2 µM (inactive) | GI50 (HOP-92): 7.23 µM (inactive) | GI50 (HT-29): 17.8 µM (inactive) | GI50 (Hs-578T): 25.4 µM (inactive) | GI50 (IGROV-1): 14.4 µM (inactive) | GI50 (K562): 13.3 µM (inactive) | GI50 (KM12): 17.8 µM (inactive) | GI50 (LOX IMVI): 16.9 µM (inactive) | GI50 (M14): 16.6 µM (inactive) | GI50 (MCF7): 21.3 µM (inactive) | GI50 (MDA-MB-231): 14.3 µM (inactive) | GI50 (MDA-MB-435): 15.9 µM (inactive) | GI50 (MDA-N): 17.1 µM (inactive) | GI50 (MOLT-4): 12.9 µM (inactive) | GI50 (NCI-H460): 3.55 µM (inactive) | GI50 (OVCAR-4): 17.4 µM (inactive) | GI50 (OVCAR-5): 12.8 µM (inactive) | GI50 (OVCAR-8): 19.1 µM (inactive) | GI50 (PC-3): 14.3 µM (inactive) | GI50 (RPMI-8226): 14.3 µM (inactive) | GI50 (SF-268): 15.4 µM (inactive) | GI50 (SF-295): 15.8 µM (inactive) | GI50 (SF-539): 22.2 µM (inactive) | GI50 (SK-MEL-28): 17.3 µM (inactive) | GI50 (SK-MEL-2): 15 µM (inactive) | GI50 (SK-MEL-5): 15.3 µM (inactive) | GI50 (SN12C): 20.1 µM (inactive) | GI50 (SNB-19): 17.3 µM (inactive) | GI50 (SNB-75): 24.7 µM (inactive) | GI50 (SR): 17.9 µM (inactive) | GI50 (SW-620): 19.5 µM (inactive) | GI50 (T47D): 16.1 µM (inactive) | GI50 (TK-10): 19.6 µM (inactive) | GI50 (U-251): 17.1 µM (inactive) | GI50 (UACC-257): 17.5 µM (inactive) | GI50 (UACC-62): 14.4 µM (inactive) | GI50 (UO-31): 16.8 µM (inactive)
